Read-outs that look alike come from different tables or passages of the source.
Columns and labels:
[1] = target: T1, DHFR (Candida albicans, UniProt P22906); experiment: biochemical
T1 sequence (P22906 1-192): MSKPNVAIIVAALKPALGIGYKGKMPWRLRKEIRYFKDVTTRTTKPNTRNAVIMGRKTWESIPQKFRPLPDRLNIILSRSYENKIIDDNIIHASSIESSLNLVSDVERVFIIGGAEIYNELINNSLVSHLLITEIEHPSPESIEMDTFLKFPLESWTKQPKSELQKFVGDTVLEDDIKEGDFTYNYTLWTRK

[2] = target: T2, human dihydrofolate reductase (Homo sapiens, UniProt P00374); experiment: DHFR I50, human enzyme; assay type: biochemical
T2 sequence (P00374 1-187): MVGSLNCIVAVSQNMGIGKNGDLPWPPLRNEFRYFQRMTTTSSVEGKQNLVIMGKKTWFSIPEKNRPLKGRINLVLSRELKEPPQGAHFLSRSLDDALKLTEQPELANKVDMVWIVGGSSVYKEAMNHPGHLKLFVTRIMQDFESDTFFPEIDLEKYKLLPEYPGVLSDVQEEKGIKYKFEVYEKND

[3] = target: T2, human dihydrofolate reductase; experiment: Enzyme binding affinity (Ki) for human dihydrofolate reductase, Henderson equation; assay type: biochemical; settings: 50mM Sorenson's phosphate buffer, pH 7, 45µM dihydrofolate, 65µM NADPH
[4] = test system: CCRF-CEM T cells; experiment: Cytotoxicity in cell culture (inhibition of cell growth); assay type: cell-based; settings: human line, continuous exposure 72 hours
Method: (§1) The cytotoxic effects of various compounds were measured by the inhibition of mammalian cell growth in culture. Cell lines were grown in RPMI-1640 media prepared without folic acid but supplemented with 10nM calcium leucovorin, 25mM HEPES and 10% dialysed fetal bovine serum. In the case of human medulloblastoma cells (Daoy), the media (containing undialysed 10% fetal bovine serum) was pretreated with the enzyme thymidine phosphorylase (20 units/ml for 30 mins. at 37°C) to remove endogenous thymidine. Cells were seeded into 96 well microtiter plates (at densities determined to give log phase growth of control cells at the end of the assay) in 150µl of medium and grown at 37°C in a humidified incubator at 6% CO₂ for 24 hours. Compounds were prepared in media at four times the highest concentration to be tested; two-fold serial dilutions were made, and compounds were added to cells. […] The EC₅₀, defined as the concentration of compound required to reduce growth to 50% of the control, was determined from a plot of per cent inhibition versus log concentration. Cells were continuously exposed to inhibitor for 72 hours.

[5] = test system: D98 bone marrow cells; experiment: as above; assay type: cell-based; settings: human line, continuous exposure 72 hours
Method: as §1

[6] = test system: Daoy medulloblastoma; experiment: as above; assay type: cell-based; settings: human line, continuous exposure 72 hours, medium pretreated with thymidine phosphorylase
Method: as §1

[7] = test system: Ehrlich ascites carcinoma; experiment: as above; assay type: cell-based; settings: mouse line, continuous exposure 72 hours
Method: as §1

[8] = test system: GC3C1 colon carcinoma; experiment: as above; assay type: cell-based; settings: GC3/C1, human line, continuous exposure 72 hours
Method: as §1

[9] = test system: HCT8 colon adenocarcinoma; experiment: as above; assay type: cell-based; settings: HCT-8, human line, continuous exposure 72 hours
Method: as §1

[10] = test system: KB3-1 epidermoid carcinoma; experiment: as above; assay type: cell-based; settings: KB 3-1, human line, continuous exposure 72 hours
Method: as §1

[11] = test system: L cells (derived from connective tissue); experiment: as above; assay type: cell-based; settings: mouse line, continuous exposure 72 hours
Method: as §1

[12] = test system: MCF7 breast adenocarcinoma; experiment: as above; assay type: cell-based; settings: human line, continuous exposure 72 hours
Method: as §1

[13] = test system: P388 lymphoid neoplasm; experiment: as above; assay type: cell-based; settings: mouse line, continuous exposure 72 hours
Method: as §1

[14] = test system: S180 sarcoma; experiment: as above; assay type: cell-based; settings: S-180, mouse line, continuous exposure 72 hours
Method: as §1

[15] = test system: Sal. Typhosa CN512; experiment: Minimum inhibitory concentration vs microorganisms; assay type: cell-based; settings: Wellcotest broth plus 7% lysed horse blood, 18 hours, 37°C
[16] = Brain distribution in mice (brain and plasma concentrations by HPLC); assay type: in vivo; settings: female CD1 mice, 30 or 40 minutes after dose; Compound 1 17mg/kg i.v., Compound 2 10mg/kg i.v., piritrexim 200mg/kg i.p., trimetrexate 100mg/kg i.p.; average of several experiments
Method: Female CD1 mice were dosed with Compound 1 (17mg/kg, i.v.), Compound 2 (10mg/kg, i.v.), piritrexim (200mg/kg,i.p.) or trimetrexate (100mg/kg, i.p.). Brain and plasma samples were collected 30 or 40 minutes later. The drugs were extracted from the samples, and their concentrations were determined using HPLC. The numbers represent the average of several experiments.

[17] = test system: Str. Pyogenes CN10; experiment: Minimum inhibitory concentration vs microorganisms; settings: Wellcotest broth plus 7% lysed horse blood, 18 hours, 37°C
Text: (§2) The culture medium used in the test was Wellcotest broth to which lysed horse blood had been added at a final concentration of 7%. The assay was semi-automated employing 96-well Microtiter plates, and growth was monitored visually.

[18] = test system: Str. Faecalis CN478; experiment: Minimum inhibitory concentration vs microorganisms; settings: Wellcotest broth plus 7% lysed horse blood, 18 hours, 37°C
Text: as §2

[19] = test system: Str. Agalactiae CN1143; experiment: Minimum inhibitory concentration vs microorganisms; settings: Wellcotest broth plus 7% lysed horse blood, 18 hours, 37°C
Text: as §2

[20] = test system: Staph. Aureus CN491; experiment: Minimum inhibitory concentration vs microorganisms; settings: Wellcotest broth plus 7% lysed horse blood, 18 hours, 37°C
Text: as §2

[21] = test system: Bord. Bronchisep-tica CN385; experiment: Minimum inhibitory concentration vs microorganisms; settings: Bord. Bronchiseptica CN385; Wellcotest broth plus 7% lysed horse blood, 18 hours, 37°C
Text: as §2

[22] = test system: Past. Multocida ATCC6587; experiment: Minimum inhibitory concentration vs microorganisms; settings: Wellcotest broth plus 7% lysed horse blood, 18 hours, 37°C
Text: as §2

[23] = test system: Candida Albicans CN1863; experiment: Minimum inhibitory concentration vs microorganisms; settings: Wellcotest broth plus 7% lysed horse blood, 18 hours, 37°C
Text: as §2

[24] = test system: Myco. Smegmatis S3254; experiment: Minimum inhibitory concentration vs microorganisms; settings: Wellcotest broth plus 7% lysed horse blood, 18 hours, 37°C
Text: as §2

[25] = test system: Sal. Typhimurium S8587; experiment: Minimum inhibitory concentration vs microorganisms; settings: Wellcotest broth plus 7% lysed horse blood, 18 hours, 37°C
Text: as §2

[26] = test system: Shig. Flexneri CN6007; experiment: Minimum inhibitory concentration vs microorganisms; settings: Wellcotest broth plus 7% lysed horse blood, 18 hours, 37°C
Text: as §2

[27] = test system: Mycobacterium avium complex (MAC); experiment: In vitro activity vs Mycobacterium avium complex, radiometric respirometry (BACTEC); assay type: cell-based; settings: seven (7) clinical isolates of Myco. avium
[28] = test system: Vibrio Cholerae ATCC14035; experiment: Minimum inhibitory concentration vs microorganisms; settings: Wellcotest broth plus 7% lysed horse blood, 18 hours, 37°C
Text: as §2

| Compound | IC50 [2] [nM] | Ki [3] [nM] | EC50 [4] [nM] | EC50 [5] [nM] | EC50 [6] [nM] | EC50 [8] [nM] | EC50 [9] [nM] | EC50 [10] [nM] | EC50 [11] [nM] | EC50 [12] [nM] | M I C [15] [µg/mL] | M I C [17] | M I C [18] | M I C [19] | M I C [20] [µg/mL] | M I C [22] | M I C [23] [µg/mL] | M I C [24] [µg/mL] | M I C [25] [µg/mL] | M I C [26] [µg/mL] | further results |
| --- | --- | --- | --- | --- | --- | --- | --- | --- | --- | --- | --- | --- | --- | --- | --- | --- | --- | --- | --- | --- | --- |
| CCC(CC)n1ccc2c3c(N)nc(N)nc3ccc21 [Compound 1, 1,3-Diamino-7-(1-ethylpropyl)-7H-pyrrolo(3,2-f)quinazoline] | < 1 | 0.019 | 0.7 | 45 | 8.4 | 3.5 | 1.2 | 70 | 2.2 | 38 | 0.1 | 0.1 µg/mL | 0.1 µg/mL | 0.1 µg/mL | 0.1 | 0.1 µg/mL | 0.3 | 0.1 | 0.1 | 0.1 | IC50 ([1]; C.albicans enzyme, read-out: DHFR I50 C.albicans): 4.5 nM; EC50 [7]: 1.9 nM; EC50 [13]: 2.7 nM; EC50 [14]: 4.8 nM; Tissue concentration brain [16]: 5.0 µg/g; Tissue concentration plasma [16]: 0.70 µg/mL; M I C [21]: 0.1 µg/mL |
| CCC(CC)n1c(C)cc2c3c(N)nc(N)nc3ccc21 [Compound 2, 1,3-Diamino-7-(1-ethylpropyl)-8-methyl-7H-pyrrolo(3,2-f)quinazoline] | < 1 | 0.0014 | < 1 | 12 | 0.4 | 0.8 | 0.3 | 13 | 0.7 | 0.9 | 0.1 | .0001 µg/mL | .0001 µg/mL | .0001 µg/mL | 0.01 | .0001 µg/mL | 0.03 | 0.001 | 0.003 | 0.003 | IC50 [1]: < 1 nM; EC50 [13]: 0.3 nM; Tissue concentration brain [16]: 2.4 µg/g; Tissue concentration plasma [16]: 0.36 µg/mL; inhibition at 1 µg/mL ([27]; 1µg/ml, read-out: range of growth inhibition): 69 to 97%; inhibition at 5 µg/mL ([27]; 5µg/ml, read-out: range of growth inhibition): 97 to 99%; M I C ([27]; roughly translated from growth inhibition, read-out: average MIC): ~1.6 µg/mL; M I C [21]: 0.003 µg/mL; M I C [28]: .0001 µg/mL |
| COc1cc(Cc2cnc(N)nc2N)cc(OC)c1OC [Trimethoprim, 2,4-diamino-5-(3,4,5-trimethoxybenzyl)pyrimidine, reference compound] |  |  |  |  |  |  |  |  |  |  | 0.1 | 0.1 µg/mL | 0.1 µg/mL | 0.1 µg/mL | 0.1 | 0.1 µg/mL | >100 | 0.3 | 0.1 | 0.1 | M I C [28]: 0.3 µg/mL |
